Positions of bridges follow the written chain, without caps; N, C: chain ends. Residues, ends and D or L forms follow the SMILES beside them.
Assays:
Experiment in all cases: cell-based
hα9α10 nAChR = hα9α10 nAChR (Homo sapiens, UniProt Q9GZZ6+Q9UGM1)
rα9α10 nAChR = rα9α10 nAChR (Rattus norvegicus, UniProt P43144+Q9JLB5)
hα9rα10 nAChR = hα9rα10 nAChR (UniProt Q9JLB5+Q9UGM1); parameters: species or system human α9 and rat α10
hα9α10[L7H] nAChR = hα9α10[L7H] nAChR (Homo sapiens, UniProt Q9GZZ6+Q9UGM1, L31H); assay type: cell-based
Sequence of hα9α10[L7H] nAChR (Q9UGM1 26-479 limits assumed, stated change not applied): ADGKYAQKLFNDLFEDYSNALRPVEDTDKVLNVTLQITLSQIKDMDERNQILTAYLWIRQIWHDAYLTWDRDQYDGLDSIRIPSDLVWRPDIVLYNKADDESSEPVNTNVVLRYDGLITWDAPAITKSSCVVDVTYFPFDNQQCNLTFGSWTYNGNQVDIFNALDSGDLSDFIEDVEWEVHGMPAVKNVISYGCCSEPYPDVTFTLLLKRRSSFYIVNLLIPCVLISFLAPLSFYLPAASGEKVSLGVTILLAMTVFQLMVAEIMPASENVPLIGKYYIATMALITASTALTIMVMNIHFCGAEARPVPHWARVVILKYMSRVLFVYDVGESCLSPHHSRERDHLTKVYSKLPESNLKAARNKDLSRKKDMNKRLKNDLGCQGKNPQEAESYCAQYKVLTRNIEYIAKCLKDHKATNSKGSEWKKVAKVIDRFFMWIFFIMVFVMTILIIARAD
Sequence of hα9α10[L7H] nAChR (Q9GZZ6 25-450 L31H limits assumed, stated change not applied): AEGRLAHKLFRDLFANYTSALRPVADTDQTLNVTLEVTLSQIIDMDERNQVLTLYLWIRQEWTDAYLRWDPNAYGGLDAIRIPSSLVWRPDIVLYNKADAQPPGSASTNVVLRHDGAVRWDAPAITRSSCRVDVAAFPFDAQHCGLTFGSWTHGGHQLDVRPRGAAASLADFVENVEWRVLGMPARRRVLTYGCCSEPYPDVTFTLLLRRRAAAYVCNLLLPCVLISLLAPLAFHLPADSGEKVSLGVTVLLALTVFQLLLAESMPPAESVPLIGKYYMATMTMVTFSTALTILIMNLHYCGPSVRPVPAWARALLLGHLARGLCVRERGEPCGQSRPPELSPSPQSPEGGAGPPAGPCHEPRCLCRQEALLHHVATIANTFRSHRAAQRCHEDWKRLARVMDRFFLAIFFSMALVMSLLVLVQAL

Sequence of hα9rα10 nAChR (Q9UGM1 26-479 limits assumed): as the sequence (Q9UGM1 26-479 limits assumed, stated change not applied) above
Sequence of hα9rα10 nAChR (Q9JLB5 25-447 limits assumed): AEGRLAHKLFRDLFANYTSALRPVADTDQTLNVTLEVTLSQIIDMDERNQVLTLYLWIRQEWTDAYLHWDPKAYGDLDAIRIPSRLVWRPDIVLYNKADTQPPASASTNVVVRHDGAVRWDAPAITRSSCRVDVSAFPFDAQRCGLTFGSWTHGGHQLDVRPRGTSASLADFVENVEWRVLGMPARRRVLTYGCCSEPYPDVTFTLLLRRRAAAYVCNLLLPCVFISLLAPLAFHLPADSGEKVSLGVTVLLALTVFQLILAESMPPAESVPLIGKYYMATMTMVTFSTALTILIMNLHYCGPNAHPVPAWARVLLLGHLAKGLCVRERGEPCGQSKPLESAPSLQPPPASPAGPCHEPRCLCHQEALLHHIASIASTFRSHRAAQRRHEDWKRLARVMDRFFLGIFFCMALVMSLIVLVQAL
Sequence of hα9α10 nAChR (Q9UGM1 26-479 limits assumed): as the sequence (Q9UGM1 26-479 limits assumed, stated change not applied) above
Sequence of hα9α10 nAChR (Q9GZZ6 25-450 limits assumed): as the sequence (Q9GZZ6 25-450 L31H limits assumed, stated change not applied) above, with H7L counted along it
Sequence of rα9α10 nAChR (P43144 26-479 limits assumed): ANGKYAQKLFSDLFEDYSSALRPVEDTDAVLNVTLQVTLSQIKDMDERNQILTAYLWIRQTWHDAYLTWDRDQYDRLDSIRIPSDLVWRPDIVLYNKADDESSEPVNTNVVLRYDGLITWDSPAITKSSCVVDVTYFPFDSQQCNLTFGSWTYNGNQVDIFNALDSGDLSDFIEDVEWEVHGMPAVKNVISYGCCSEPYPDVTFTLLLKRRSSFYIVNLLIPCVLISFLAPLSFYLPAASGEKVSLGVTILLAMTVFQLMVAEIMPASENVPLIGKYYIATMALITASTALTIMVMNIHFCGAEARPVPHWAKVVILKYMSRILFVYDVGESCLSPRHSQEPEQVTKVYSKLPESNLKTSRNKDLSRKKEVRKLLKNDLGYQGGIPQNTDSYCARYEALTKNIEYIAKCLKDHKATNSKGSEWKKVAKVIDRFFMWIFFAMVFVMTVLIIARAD
Sequence of rα9α10 nAChR (Q9JLB5 25-447 limits assumed): as the sequence (Q9JLB5 25-447 limits assumed) above

SMILES: CSCC[C@H](NC(=O)[C@@H](NC(=O)[C@@H]1CSSC[C@@H]2NC(=O)[C@H](CC(=O)O)NC(=O)[C@H](C)NC(=O)[C@H](CCCNC(=N)N)NC(=O)[C@H](C)NC(=O)[C@@H]3CSSC[C@H](NC(=O)CNC(=O)[C@H](Cc4c[nH]cn4)NC(=O)CNC(=O)[C@H](CCCNC(=N)N)NC(=O)[C@H](Cc4c[nH]c5ccccc45)NC(=O)[C@H]([C@@H](C)O)NC(=O)[C@H](Cc4c[nH]cn4)NC(=O)[C@H](Cc4ccc(O)cc4)NC(=O)[C@H](C(C)C)NC(=O)[C@H](CSSC[C@H](NC(=O)[C@H](CC(C)C)NC(=O)[C@H](CCCNC(=N)N)NC(=O)[C@@H](N)[C@@H](C)O)C(=O)N[C@@H](CO)C(=O)N[C@@H]([C@@H](C)O)C(=O)N[C@@H](CCSC)C(=O)N[C@@H](CO)C(=O)N3)NC(=O)[C@H]([C@@H](C)O)NC2=O)C(=O)N[C@@H](CO)C(=O)N1)C(C)C)C(=O)O [GeXXA-CTD] (H-TRLCSTMSCARADCTCVYHTWRGHGCSCVM-OH; disulfide 4-16, 9-26, 14-28)
- IC50 (hα9α10 nAChR): 2020 nM
- IC50 (rα9α10 nAChR): 198 nM
- IC50 (hα9rα10 nAChR): 224 nM
- IC50 (hα9α10[L7H] nAChR): 183 nM

— publication PMC4585798 (Scientific Reports, 2015)
